In EP3628672A1 (priority 2018, dated 2020) one finds inhibition and Ki data, which are given here for 22 compounds.

Test [1] deals with T1, LasB (Pseudomonas aeruginosa, UniProt P14756).
T1 construct: uses as source of enzyme dialysed supernatant from P. aeruginosa PAO1; endogenous in cells; host or cells: P. aeruginosa PAO1 culture supernatant, filtered and dialysed
The test is described as follows: Elastin assay to determine % inhibition (Elastin Congo-Red, dialysed culture supernatant). It counts as biochemical, P. aeruginosa PAO1. The note with it: read-out: Elastin hydrolysis % inhibition @ 50 / 25 µM inhibitor concentration. In a few lines:
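Enzyme source was dialysed PAO1 culture supernatant (50 mM Tris-HCl pH 7.4, 2.5 mM CaCl2), mixed with Elastin Congo-Red and 0.01% Triton X-100. Compound was routinely 50 to 1.56 µM, incubated overnight at 37 °C with shaking. Dye release at OD495 gave % inhibition relative to DMSO and no-enzyme controls.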

Test [2] concerns the target T2, purified LasB protein from P. aeruginosa (Pseudomonas aeruginosa, UniProt P14756).
T2 construct: purchased Merck or Charles River Laboratories
The test is described as follows: Fluorometric assay to determine Ki (Abz-Ala-Gly-Leu-Ala-p-Nitro-Benzyl-Amide substrate). The format is biochemical. The method, boiled down: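 Purified P. aeruginosa LasB (10–140 ng/ml) with 250 µM Abz-Ala-Gly-Leu-Ala-p-nitrobenzylamide in 50 mM Tris-HCl pH 7.4, 2.5 mM CaCl2, 0.01% Triton X100, 37 °C; hydrolysis fluorescence (Ex 340/Em 415 nm) followed over 30 min, inhibitor 0.0016–200 µM. Ki = IC50/(1+[S]/Km), Km 214 µM.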

Read-outs that look alike come from different tables or passages of the source.

As usually defined, the Ki is a measure of affinity in units of concentration, obtained from inhibition or displacement.

T1 sequence (P14756 198-498): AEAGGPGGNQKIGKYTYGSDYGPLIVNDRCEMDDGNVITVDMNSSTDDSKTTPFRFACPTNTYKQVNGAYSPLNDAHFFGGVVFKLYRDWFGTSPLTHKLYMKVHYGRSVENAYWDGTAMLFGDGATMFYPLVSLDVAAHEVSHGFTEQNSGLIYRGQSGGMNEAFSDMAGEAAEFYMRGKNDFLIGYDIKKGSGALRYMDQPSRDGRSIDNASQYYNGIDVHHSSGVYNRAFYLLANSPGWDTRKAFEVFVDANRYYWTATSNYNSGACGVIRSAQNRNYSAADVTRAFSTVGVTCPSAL
T2 sequence (P14756 198-498): as above

On to `COc1cc(OCC(=O)N2CC[N+](C)(C)CC2)ccc1-c1csc(CNC(=O)C2(CC(=O)[O-])Cc3cc(F)c(F)cc3C2)n1` [Example 82, 2-[2-[[4-[4-[2-(4,4-dimethylpiperazin-4-ium-1-yl)-2-oxo-ethoxy]-2-methoxy-phenyl]thiazol-2-yl]methylcarbamoyl]-5,6-difluoro-indan-2-yl]acetate], for which the inhibition at 25 µM in test [1] lay in the range of 60 to 75%. The same compound registered a Ki in test [2] of 50 to 200 nM.

In the case of `COc1cc(OCCN2CCN(C)C(=O)C2)ccc1-c1csc(CNC(=O)C2(CC(=O)O)Cc3ccccc3C2)n1` [Example 83, 2-[2-[[4-[2-methoxy-4-[2-(4-methyl-3-oxo-piperazin-1-yl)ethoxy]phenyl]thiazol-2-yl]methylcarbamoyl]indan-2-yl]acetic acid], the inhibition at 25 µM in test [1] is > 75%. Also, the Ki in test [2] was < 50 nM.

With `COc1cc(OCC[N+]2(C)CCN(C)C(=O)C2)ccc1-c1csc(CNC(=O)C2(CC(=O)[O-])Cc3ccccc3C2)n1` (centres unmarked) [Example 84, 2-[2-[[4-[4-[2-(1,4-dimethyl-3-oxo-piperazin-1-ium-1-yl)ethoxy]-2-methoxy-phenyl]thiazol-2-yl]methylcarbamoyl]indan-2-yl]acetate], the inhibition at 25 µM in test [1] is 60 to 75%. The Ki in test [2] lay in the range of 50 to 200 nM.

On to `COc1cc(OCCc2nccn2C)ccc1-c1csc(CNC(=O)C2(CC(=O)O)Cc3ccccc3C2)n1` [Example 85, 2-[2-[[4-[2-methoxy-4-[2-(1-methylimidazol-2-yl)ethoxy]phenyl]thiazol-2-yl]methylcarbamoyl]indan-2-yl]acetic acid], for which the inhibition at 25 µM in test [1] was 60 to 75%. In test [2], this compound registered a Ki of 50 to 200 nM.

With `COc1cc(OCCc2n(C)cc[n+]2C)ccc1-c1csc(CNC(=O)C2(CC(=O)[O-])Cc3cc(F)c(F)cc3C2)n1` [Example 86, 2-[2-[[4-[4-[2-(1,3-dimethylimidazol-1-ium-2-yl)ethoxy]-2-methoxy-phenyl]thiazol-2-yl]methylcarbamoyl]-5,6-difluoro-indan-2-yl]acetate], the inhibition at 25 µM in test [1] was in the range of 60 to 75%. For the same compound, the Ki in test [2] lay within 50 to 200 nM.

As for `Cn1cc[n+](C)c1CCOc1ccc(-c2csc(CNC(=O)C3(CC(=O)[O-])Cc4ccccc4C3)n2)cc1` [Example 87, 2-[2-[[4-[4-[2-(1,3-dimethylimidazol-1-ium-2-yl)ethoxy]phenyl]thiazol-2-yl]methylcarbamoyl]indan-2-yl]acetate], the inhibition at 25 µM in test [1] lay within 10 to 60%. The compound further yielded a Ki in test [2] of 50 to 200 nM.

For `COc1cc(OCCN2CCN(C(C)=O)CC2)ccc1-c1csc(CNC(=O)C2(CC(=O)O)Cc3ccccc3C2)n1` [Example 88], the inhibition at 25 µM in test [1] was > 75%. The Ki in test [2] is < 50 nM.

Turning to `Cn1cc(-c2csc(CNC(=O)C3(CC(=O)O)Cc4ccccc4C3)n2)cn1` [Example 89, 2-[2-[[4-(1-methylpyrazol-4-yl)thiazol-2-yl]methylcarbamoyl]indan-2-yl]acetic acid], the inhibition at 25 µM in test [1] lay within 60 to 75%. This compound also registered a Ki in test [2] of 50 to 200 nM.

Turning to `Cn1ccc(-c2csc(CNC(=O)C3(CC(=O)O)Cc4ccccc4C3)n2)n1` [Example 90, 2-[2-[[4-(1-methylpyrazol-3-yl)thiazol-2-yl]methylcarbamoyl]indan-2-yl]acetic acid], the inhibition at 25 µM in test [1] is 60 to 75%. This compound yielded a Ki in test [2] of 200 to 10000 nM.

Consider `Cc1c(-c2csc(CNC(=O)C3(CC(=O)O)Cc4ccccc4C3)n2)cnn1C` [Example 91, 2-[2-[[4-(1,5-dimethylpyrazol-4-yl)thiazol-2-yl]methylcarbamoyl]indan-2-yl]acetic acid], for which the inhibition at 25 µM in test [1] was > 75%. In addition, the Ki in test [2] was in the range of 50 to 200 nM.

As for `Cn1nccc1-c1csc(CNC(=O)C2(CC(=O)O)Cc3ccccc3C2)n1` [Example 92, 2-[2-[[4-(2-methylpyrazol-3-yl)thiazol-2-yl]methylcarbamoyl]indan-2-yl]acetic acid], the inhibition at 25 µM in test [1] is 60 to 75%. The Ki in test [2] was 50 to 200 nM.

Take `Cc1nn(C)cc1-c1csc(CNC(=O)C2(CC(=O)O)Cc3ccccc3C2)n1` [Example 93, 2-[2-[[4-(1,3-dimethylpyrazol-4-yl)thiazol-2-yl]methylcarbamoyl]indan-2-yl]acetic acid]: in test [1], the inhibition at 25 µM was in the range of 60 to 75%. In test [2], this compound had a Ki of 50 to 200 nM.

In the case of `O=C(O)CC1(C(=O)NCc2nc(-c3cncnc3)cs2)Cc2ccccc2C1` [Example 94, 2-[2-[(4-pyrimidin-5-ylthiazol-2-yl)methylcarbamoyl]indan-2-yl]acetic acid], the inhibition at 25 µM in test [1] lay in the range of 60 to 75%. In test [2], the Ki lay in the range of 200 to 10000 nM.

Take `O=C(O)CC1(C(=O)NCc2nc(-c3ccncc3)cs2)Cc2ccccc2C1` [Example 95, 2-[2-[[4-(4-pyridyl)thiazol-2-yl]methylcarbamoyl]indan-2-yl]acetic acid]: the inhibition at 25 µM in test [1] lay in the range of 60 to 75%. For the same compound, the Ki in test [2] fell in the range of 200 to 10000 nM.

As for `O=C(O)CC1(C(=O)NCc2nc(-c3cnn(CCN4CCOCC4)c3)cs2)Cc2ccccc2C1` [Example 96, 2-[2-[[4-[1-(2-morpholinoethyl)pyrazol-4-yl]thiazol-2-yl]methylcarbamoyl]indan-2-yl]acetic acid], in test [1], the inhibition at 25 µM lay in the range of 60 to 75%. For the same compound, the Ki in test [2] was in the range of 50 to 200 nM.

For `Cc1cc(-c2csc(CNC(=O)C3(CC(=O)O)Cc4ccccc4C3)n2)n[nH]1` [Example 98, 2-[2-[[4-(5-methyl-1H-pyrazol-3-yl)thiazol-2-yl]methylcarbamoyl]indan-2-yl] acetic acid], in test [1], the inhibition at 25 µM was in the range of 60 to 75%. In addition, in test [2], the Ki was 200 to 10000 nM.

For the compound `O=C(O)CC1(C(=O)NCc2nc(-c3cnn(CCCN4CCOCC4)c3)cs2)Cc2ccccc2C1` [Example 99, 2-[2-[[4-[1-(3-morpholinopropyl)pyrazol-4-yl]thiazol-2-yl]methylcarbamoyl]indan-2-yl]acetic acid], in test [1], the inhibition at 25 µM lay in the range of 60 to 75%. This compound had a Ki in test [2] of 50 to 200 nM.

On to `CN1CCN(C(=O)Cn2cc(-c3csc(CNC(=O)C4(CC(=O)O)Cc5ccccc5C4)n3)cn2)CC1` [Example 101], for which the inhibition at 25 µM in test [1] lay within 60 to 75%. The Ki in test [2] (Ki calculated from IC50, [S] = 250 µM, Km = 214 µM, 37°C, pH 7.4) is 200 to 10000 nM.

Turning to `CN1CCC(n2cc(-c3csc(CNC(=O)C4(CC(=O)O)Cc5ccccc5C4)n3)cn2)CC1` [Example 102, 2-[2-[[4-[1-(1-methyl-4-piperidyl)pyrazol-4-yl]thiazol-2-yl]methylcarbamoyl]indan-2-yl]acetic acid], the inhibition at 25 µM in test [1] was in the range of 60 to 75%. In addition, the Ki in test [2] fell in the range of 200 to 10000 nM.

On to `CN(C)CC(=O)N1CCC(n2cc(-c3csc(CNC(=O)C4(CC(=O)O)Cc5ccccc5C4)n3)cn2)CC1` [Example 103, 2-[2-[[4-[1-[1-[2-(dimethylamino)acetyl]-4-piperidyl]pyrazol-4-yl]thiazol-2-yl]methylcarbamoyl]indan-2-yl]acetic acid], for which the inhibition at 25 µM in test [1] lay within 60 to 75%. The compound further displayed a Ki in test [2] of 200 to 10000 nM.

For the compound `CN1CCN(C(=O)N2CCC(n3cc(-c4csc(CNC(=O)C5(CC(=O)O)Cc6ccccc6C5)n4)cn3)CC2)CC1` [Example 104, 2-[2-[[4-[1-[1-(4-methylpiperazine-1-carbonyl)-4-piperidyl]pyrazol-4-yl]thiazol-2-yl]methylcarbamoyl]indan-2-yl]acetic acid], the inhibition at 25 µM in test [1] was 60 to 75%. The compound further gave a Ki in test [2] of 50 to 200 nM.

`CN1CCN(C(=O)CN2CCC(n3cc(-c4csc(CNC(=O)C5(CC(=O)O)Cc6ccccc6C5)n4)cn3)CC2)CC1` [Example 105, 2-[2-[[4-[1-[1-[2-(4-methylpiperazin-1-yl)-2-oxo-ethyl]-4-piperidyl]pyrazol-4-yl]thiazol-2-yl]methylcarbamoyl]indan-2-yl]acetic acid]: the inhibition at 25 µM in test [1] lay within 60 to 75%. In test [2], this compound had a Ki of 50 to 200 nM.
